The target of experiment [1] is T1, rat TRPV1 receptor (rTRPV1) (Rattus norvegicus, UniProt O35433).
T1 construct: rat TRPV1 stably expressed under doxycycline control (Tet-on) in Flp-In T-REx-293 cells (irTRPV1-FlpIn293); homotetramer
Put plainly: cell-based. The procedure: Purchased capsaicinoid standards, capsiate (both MedChemExpress), vanillin (Honeywell Fluka) and 4-hydroxy-3-methoxybenzyl alcohol (Alfa Aesar) and AMG-517 (TargetMol, Boston, MA, USA) were all dissolved in DMSO to 10 mM as stock solutions. Stably transfected irTRPV1-FlpIn293 cells with Tet-on system (procedure described in Supplementary Methods 1.3) were grown to confluence in Advanced Dulbecco’s Modified Eagle Medium (Adv-DMEM/F12, #12634) supplemented with 10% FBS, 1% Pen Strep, 1% Glutamax (all Gibco, Thermo Fisher Scientific). Forty-eight hours before the experiment, doxycycline (final concentration 1 μg/mL)(Sigma-Aldrich, St.Luid, Mi., USA) and 10 μM ruthenium red (RR; Merck KGaG, Darmstadt, Germany) were added to the media to induce TRPV1 expression. After 24 hours, the cells were washed and detached with 0.5% trypsin–EDTA in PBS (Gibco). Cells resuspended in blocking media (Adv-DMEM/F12 + 10% FBS + 10 μM RR) were counted and then seeded into a 384-well plate (3674, Corning, Corning, NY, USA) in the amount of 3×10^4 per well. Twenty-four hours after seeding, a 2× Fluo-4 direct dye solution (Invitrogen, Thermo Fisher Scientific), dissolved in HHBS buffer, pH ∼ 7.4, was added to well with cells and incubated for 30 minutes at 37°C and then for 40 minutes at room temperature. Once incubated with the dye, the supernatant was removed using BlueWasher (BlueCatbio NH Inc., Lebanon, NH, USA) and changed to an HHBS + 10 μM sulfinpyrazone (Merck KGaG) solution added by Certus (Fritz Gyger AG, Gwatt, Switzerland), followed by 10 minutes of incubation in FDSS μCell (∼ 30°C; Hamamatsu, Hamamatsu city, Japan). A separate compound plate was prepared using an Echo dispenser 650 (Beckman Coulter Inc.,Brea, CA, USA). The final concentration was reached by adding HHBS + 10 μM sulfinpyrazone as above by Certus. The rTRPV1 activity measurement started by recording the baseline (40 s, sample interval 0.339 s). Then the compounds/compound mixture were transferred to the dedicated wells by tips while the recording was running for the next 5 minutes.

Experiment [2] deals with T1, rat TRPV1 receptor (rTRPV1). Put plainly: Fluo-4 calcium influx assay, FDSS, irTRPV1-FlpIn293 cells. The experiment is classed as cell-based.
For experiment [3] the target is unchanged. Put plainly: cell-based. Set-up: species or system irTRPV1-FlpIn293 (HEK293); Fluo-4 calcium influx, FDSS, TRPV1 activation. The procedure: Purchased capsaicinoid standards, capsiate (both MedChemExpress), vanillin (Honeywell Fluka) and 4-hydroxy-3-methoxybenzyl alcohol (Alfa Aesar) and AMG-517 (TargetMol, Boston, MA, USA) were all dissolved in DMSO to 10 mM as stock solutions. Stably transfected irTRPV1-FlpIn293 cells with Tet-on system (procedure described in Supplementary Methods 1.3) were grown to confluence in Advanced Dulbecco’s Modified Eagle Medium (Adv-DMEM/F12, #12634) supplemented with 10% FBS, 1% Pen Strep, 1% Glutamax (all Gibco, Thermo Fisher Scientific). Forty-eight hours before the experiment, doxycycline (final concentration 1 μg/mL)(Sigma-Aldrich, St.Luid, Mi., USA) and 10 μM ruthenium red (RR; Merck KGaG, Darmstadt, Germany) were added to the media to induce TRPV1 expression. After 24 hours, the cells were washed and detached with 0.5% trypsin–EDTA in PBS (Gibco). Cells resuspended in blocking media (Adv-DMEM/F12 + 10% FBS + 10 μM RR) were counted and then seeded into a 384-well plate (3674, Corning, Corning, NY, USA) in the amount of 3×10^4 per well. Twenty-four hours after seeding, a 2× Fluo-4 direct dye solution (Invitrogen, Thermo Fisher Scientific), dissolved in HHBS buffer, pH ∼ 7.4, was added to well with cells and incubated for 30 minutes at 37°C and then for 40 minutes at room temperature. […]

Where [4] appears, read: Flp-In-T-REx-293; read-out: Top.

Read-outs that look alike come from different tables or passages of the source.

T1 sequence (O35433 whole entry): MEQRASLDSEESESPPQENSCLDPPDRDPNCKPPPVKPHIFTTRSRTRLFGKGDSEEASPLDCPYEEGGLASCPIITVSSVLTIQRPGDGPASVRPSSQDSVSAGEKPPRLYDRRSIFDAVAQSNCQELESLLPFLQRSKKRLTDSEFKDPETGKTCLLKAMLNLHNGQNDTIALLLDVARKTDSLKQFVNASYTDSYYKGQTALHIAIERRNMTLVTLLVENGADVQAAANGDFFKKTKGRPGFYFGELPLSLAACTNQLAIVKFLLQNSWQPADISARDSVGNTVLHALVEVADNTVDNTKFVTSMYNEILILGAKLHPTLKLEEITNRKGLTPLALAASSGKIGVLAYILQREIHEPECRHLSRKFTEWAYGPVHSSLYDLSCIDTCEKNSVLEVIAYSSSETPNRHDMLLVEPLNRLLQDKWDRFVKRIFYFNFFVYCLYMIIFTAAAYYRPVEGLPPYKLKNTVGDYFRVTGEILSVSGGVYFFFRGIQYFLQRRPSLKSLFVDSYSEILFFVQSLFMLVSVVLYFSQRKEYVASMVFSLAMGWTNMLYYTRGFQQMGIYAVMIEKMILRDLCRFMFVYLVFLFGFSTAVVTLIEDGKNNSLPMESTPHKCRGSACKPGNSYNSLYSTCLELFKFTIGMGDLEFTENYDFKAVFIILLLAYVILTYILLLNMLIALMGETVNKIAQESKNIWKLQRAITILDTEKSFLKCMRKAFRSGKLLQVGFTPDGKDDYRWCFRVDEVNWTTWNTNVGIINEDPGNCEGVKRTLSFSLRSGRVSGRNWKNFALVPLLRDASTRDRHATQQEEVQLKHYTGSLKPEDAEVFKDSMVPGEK

With `CCCCCCCCC(=O)NCc1ccc(O)c(OC)c1` [compound 17, Nonivamide], the Emax in experiment [1] (Flp-In-T-REx-293, read-out: Top) is 105%.

As for `COc1cc(CNC(=O)CCCCCCC(C)C)ccc1O` [compound 2, Dihydrocapsaicin], in experiment [2] (read-out: EC50), the EC50 worked out at 50 nM.

As to `CCCCCCCCCC(=O)NCc1ccc(O)c(OC)c1` [compound 14, N-Vanillyldecanamide], the Emax in experiment [1] (setting [4]) was found to be 114%. Further, the EC50 in experiment [2] (read-out: EC50) is 200 nM.

For the molecule `COc1cc(CNC(=O)CCCCC(C)C)ccc1O` [compound 27, Nornordihydrocapsaicin], in experiment [1] (setting [4]), the Emax was 94.8%. Moreover, in experiment [2] (read-out: EC50), the EC50 was 1040 nM.

Turning to `COc1cc(CNC(=O)CCCCCC(O)C(C)C)ccc1O` (stereo not drawn) [compound 34, N-vanillyl-7-hydroxy-8-methylnonamide], the Emax in experiment [1] (setting [4]) was 90.6%. Also, the EC50 in experiment [2] (read-out: EC50) is 1460 nM.

As to `COc1cc(CNC(=O)CCCC/C=C/C(C)C)cc(-c2cc(CNC(=O)CCCCCCC(C)C)cc(OC)c2O)c1O` [compound 23, 6″,7″-Dihydro-5′,5‴-dicapsaicin], the EC50 in experiment [1] came to 10300 nM; in experiment [2] (agonist, HHBS pH ~7.4, ~30 °C, unreliable (sample 79.94% pure, trace monomers may inflate the potency), read-out: EC50) it was 10270 nM. Further, the Emax in experiment [1] (setting [4]) turned out to be 90.7%.

In the case of `COc1cc(CNC(=O)CC(C)C)ccc1O` [compound 30, N-isovalerylvanillylamin], the Emax in experiment [1] (setting [4]) worked out at 80%. In addition, the EC50 in experiment [2] (read-out: EC50) came to 2840 nM.

With `COc1cc(CNC(=O)CCCCC2OC2C(C)C)ccc1O` (stereo not drawn) [compound 32, Epicapsaicin], the EC50 in experiment [1] worked out at 1110 nM; in experiment [2] (read-out: EC50), 600 nM. For the same molecule, in experiment [1] (setting [4]), the Emax amounted to 110%.

Consider `COc1cc(CNC(=O)CCCCCC(=O)C(C)C)ccc1O` [compound 31, N-(4-Hydroxy-3-methoxybenzyl)-8-methyl-7-oxononanamide], for which the EC50 in experiment [1] is 602 nM; in experiment [2] (read-out: EC50) it was 560 nM. For the same molecule, in experiment [1] (setting [4]), the Emax came out at 84.2%.

Consider `COc1cc(CNC(=O)CCCCCC(C)C)ccc1O` [compound 11, Nordihydrocapsaicin], for which, in experiment [1], the EC50 amounted to 53.4 nM.

On to `CCCCCCCC(=O)NCc1ccc(O)c(OC)c1` [compound 13, N-vanillyl octanamide], for which, in experiment [1] (setting [4]), the Emax came out at 93.7%. The EC50 in experiment [2] (read-out: EC50) came out at 150 nM.

Consider `COc1cc(CNC(=O)CCCC/C=C/C(C)C)ccc1O[C@@H]1O[C@H](CO)[C@@H](O)[C@H](O)[C@H]1O` [compound 24, Capsaicin β-D-glucopyranoside], for which, in experiment [1] (setting [4]), the Emax is 102%. Also, the EC50 in experiment [2] (read-out: EC50) is 4690 nM.

Take `COc1cc(CNC(=O)C=CC=CC(C)C)ccc1O` [compound 35, N-vanillyl 6-Methyl-2,4-heptadienamide]: the Emax in experiment [1] (setting [4]) was found to be 77.8%. In addition, in experiment [2] (read-out: EC50), the EC50 was 1200 nM.

Consider `COc1cc(CNC(=O)CCCC/C=C/C(C)C)cc(-c2cc(CNC(=O)CCCC/C=C/C(C)C)cc(OC)c2O)c1O` [compound 38, 5,5’-dicapsaicin], for which the Emax in experiment [1] (setting [4]) is 83.3%. The EC50 in experiment [2] (agonist, HHBS pH ~7.4, ~30 °C, unreliable (trace monomers may inflate the potency)) is listed as 4.46E-06 (95% CI 3.848e-006 to 5.265e-006) M.

`COc1cc(CNC(=O)CCCC/C=C/C(C)CO)ccc1O` (stereo not drawn) [compound 22, ω-Hydroxycapsaicin]: the Emax in experiment [1] (setting [4]) was 90%. In addition, in experiment [2] (read-out: EC50), the EC50 was determined as 5560 nM.

Take `COc1cc(CNC(=O)CC/C=C/C(C)C)ccc1O` [compound 10, Nornorcapsaicin]: the Emax in experiment [1] (setting [4]) came out at 77.8%. The EC50 in experiment [2] (read-out: EC50) came to 810 nM.

With `COc1cc(COC(=O)CCCC/C=C/C(C)C)ccc1O` [compound 39, capsiate], the EC50 in experiment [3] stood at 491000 nM.

On to `CCCCCCCC/C=C\CCCCCCCC(=O)NCc1ccc(O)c(OC)c1` [compound 20, Olvanil], for which, in experiment [1] (setting [4]), the Emax was determined as 40.4%. Also, in experiment [2] (read-out: EC50), the EC50 amounted to 120 nM.

With `CCCCCCC(=O)NCc1ccc(O)c(OC)c1` [compound 26, N-Heptanoate vanillylamide], in experiment [1] (setting [4]), the Emax was 114%. For the same molecule, in experiment [2] (read-out: EC50), the EC50 came out at 1810 nM.

As for `COc1cc(CNC(=O)CC/C=C/C=C/C(C)C)ccc1O` [compound 16, N-vanillyl-4E,6E-dien-8-methylnonanamide], in experiment [1] (setting [4]), the Emax came to 94.3%. Besides, the EC50 in experiment [2] (read-out: EC50) is 140 nM.

In the case of `COc1cc(CNC(=O)CCCCCCCC(C)O)ccc1O` (stereo not drawn) [compound 33, N-vanillyl-9-hydroxydecanamide], the Emax in experiment [1] (setting [4]) is 96.5%. Also, in experiment [2] (read-out: EC50), the EC50 came to 6330 nM.

For the molecule `COc1cc(CNC(=O)CCCCCCCC(C)C)ccc1O` [compound 4, Homodihydrocapsaicin I], the EC50 in experiment [2] (read-out: EC50) came out at 320 nM.

The values are drawn from publication doi:10.1101/2024.10.29.620944v2, “Discovery and isolation of novel capsaicinoids and their TRPV1-related activity” (biorxiv, 2025).
